Experiment [1] deals with pY1234-cMET/PARP1 nuclear interaction, A549. The settings on record: A549, β-lap 3 μM, 2 h.
The test system of experiment [2] is pY1234-cMET / PARP1. As to the kind of experiment: PARP1 immunoprecipitation (co-IP). The conditions noted are these: A549, β-lap 3 and 6 μM for 2 h. Format: cell-based. The source says:
Next, we sought to investigate the mechanistic role of cMET in promoting resistance to ROS-induced DNA lesions caused by the futile redox cycling of β-lap with NQO1. […] In response to H2O2 stimulation, cMET can translocate into the nucleus where it interacts with PARP1 for activation to enhance the repair of ROS-induced DNA damage. […] Next we performed PARP1 immunoprecipitation studies to determine whether it associates with activated cMET in the nucleus following treatment with β-lap at increasing doses.

Experiment [3] concerns A549 shSCR 3D spheroids. As to the kind of experiment: 3D spheroid growth and viability, A549 shSCR. The conditions noted are these: β-lap 3 μM. The experiment is classed as cell-based. How it is done: (§1) FIG. 5A. Representative brightfield images of A549 shSCR versus shMET 3D spheroids treated with vehicle control (0.1% DMSO) or β-lap (3 μM, which is sub-lethal in A549 NSCLC cells in 2D long-term survival assays) imaged at indicated times to monitor microtumor spheroid growth. Scale bar=250 μm.
(§2) FIG. 5B. Graphical comparison of 3D spheroid (microtumor) growth of A549 shSCR vs shMET at indicated treatments over time relative to initial 3D spheroid area (day 1).
(§3) FIG. 5C. Quantification of 3D spheroid viability at day 10 (in panel A) using CellTiter-Glo® 3D Cell Viability Assay.
(§4) Studies have shown that drug sensitivity of cancer cells cultured in three-dimension (3D) more accurately predicts their sensitivity in vivo.30-31 Thus, we utilized 3D tumor spheroid growth of our isogenic A549 shSCR or shMET cancer cell lines to closely recapitulate the cell-cell interactions of human tumors32-33. After three days of spheroid formation, A549 shSCR and shMET microtumors were exposed to vehicle control (0.1% DMSO) or β-lap (3 μM, sub-lethal concentration in 2D culture for A549 parental line), and imaged over time for 3D spheroid tumor growth for comparison. […] Additionally, the viability of A549 shSCR versus shMET 3D spheroids treated with vehicle control and β-lap at day 10 was determined using CellTiter-Glo® 3D Viability Assay (FIG. 5C) for comparison. […]

Experiment [4] concerns 53BP1 foci (DSBs) in A549 NSCLC. As to the kind of experiment: 53BP1 foci formation, A549. The settings on record: A549, sub-lethal β-lap 3 μM for 2 h, monitored 24 h. The experiment is classed as cell-based. How it is done: FIG. 3D. Graphical representation of average 53BP1 foci formation per nucleus at indicated treatment conditions: criz (1 μM), β-lap (3 μM), and DIC separately or in combination.
FIG. 3E Graph showing quantification of DSB formation (% cells with ≥5 53BP1 foci) following exposure of A549 shSCR vs shMET cells to indicated agents for 2 h (in red arrow), washed out and monitored up to 24 h to determine DSB repair kinetics.

Experiment [5] deals with Capan2-mCherry microtumor. As to the kind of experiment: 3D spheroid co-culture, tumor cells. The experiment is classed as cell-based. The conditions noted are these: 3D co-culture with NIH3T3-GFP; crizotinib 2 μM, β-lap 2 μM or 4 μM. How it is done: FIG. 5D. Top Inset: Representative brightfield, green (NIH3T3-GFP), red (Capan2-mCherry), and merged images of 3D spheroid co-culture of Capan2-mCherry (cancer cells) and NIH3T3-GFP (normal cells). 3D co-cultures were exposed to specified treatment conditions and imaged at indicated times to monitor drug response. Scale bar=250 μm. Untreated NIH3T3-GFP 3D spheroid culture by itself (imaged at indicated times) was added for reference.
FIG. 5E. Bar graph of Capan2-mCherry 3D spheroid microtumor growth at specified treatment conditions over time. Asterisk (*) indicates synergistic response in the combination treatment compared to the corresponding individual treatments alone.
Next, we investigated the tumor-selectivity and efficacy of our combination treatment strategy using 3D co-culture spheroids of Capan2 PDAC (permanently labelled with mCherry) and NIH3T3 mouse embryonic fibroblast cells (permanently labelled with GFP) to mimic physiological cell-cell and cell-environment interactions during treatment. […] These are consistent with patient data comparing associated normal tissues versus tumors in pancreas (FIGS. 1-1B, 1-1G) and lungs (FIGS. 1A, 1-1B, 1-1H). Using confocal fluorescent microscopy, we noted that NIH3T3-GFP fibroblast cells were surrounding the Capan2-mCherry PDAC cells in the 3D spheroid co-culture (FIG. 5D).

For experiment [6], the system named is cancers with NQO1. The settings on record: average, most cancers with NQO1; cited from earlier work.
In experiment [7] the test system is A549 shMET 3D spheroids. As to the kind of experiment: 3D spheroid growth and viability, A549 shMET. The settings on record: β-lap 3 μM. Format: cell-based. How it is done: as §1, §2, §3, §4
The test system of experiment [8] is A549 shMET cells. As to the kind of experiment: long-term survival, A549 shSCR vs shMET. The conditions noted are these: β-lap 2 h. Format: cell-based. How it is done: (§5) LC50 values were calculated from long-term cell survival graphs using GraphPad PRISM; ND denotes Not Determined even at the highest concentration presented. All error bars represent the mean±SEM. **** p<0.0001, *** p<0.001, ** p<0.01, *p<0.05.

Experiment [9] concerns A549 NSCLC with transient MET knockdown (siMET). Briefly: long-term survival, A549 transient MET knockdown. The conditions noted are these: A549, two different siRNAs.
Protocol: Graph showing relative long-term survival studies in A549 NSCLC with transient MET knockdown (siMET) compared to siSCR control. β-lap was added±DIC (50 μM) for 2 h after RNAi transfection (48 h) with two different siRNA sequences.
Next, we investigated whether loss of cMET activity arising from genetic depletion of MET expression could enhance the therapeutic effect of β-lap at lower concentrations.
Experiment [10] concerns A549 NQO1−/− cells. As to the kind of experiment: long-term cell survival, A549 NQO1 knock out. Format: cell-based. The conditions noted are these: β-lap alone. How it is done: as §5
FIG. 1F. […] LC50 values were calculated from long-term cell survival graphs using GraphPad PRISM; ND denotes Not Determined even at the highest concentration presented. All error bars represent the mean±SEM. **** p<0.0001, *** p<0.001, ** p<0.01, *p<0.05.

The test system of experiment [11] is A549 NSCLC cells. As to the kind of experiment: long-term cell survival assay, A549. The settings on record: sub-lethal crizotinib (2 μM) 2 h pre-treatment, then criz ± β-lap 2 h, ~7 days, DER >1 = synergistic. Format: cell-based. How it is done:
FIG. 1B. […] LC50 values were calculated from long-term cell survival graphs using GraphPad PRISM; ND denotes Not Determined even at the highest concentration presented. All error bars represent the mean±SEM. **** p<0.0001, *** p<0.001, ** p<0.01, *p<0.05.
FIG. 1C. […] LC50 values were calculated from long-term cell survival graphs using GraphPad PRISM; ND denotes Not Determined even at the highest concentration presented. All error bars represent the mean±SEM. **** p<0.0001, *** p<0.001, ** p<0.01, *p<0.05.

With `CC1(C)CCC2=C(O1)c1ccccc1C(=O)C2=O` [β-lap, β-Lapachone], the “in situ interaction between activated cMET and PARP1 (PLA foci)” value in [1] is “enhanced in situ interaction”. The “pY1234-cMET co-immunoprecipitated with PARP1” value in experiment [2] is listed as “increasing levels of pY1234-cMET with PARP1”. In experiment [3], the “3D spheroid (microtumor) growth over time” value is on record as “relatively negligible microtumor lethality” and the “3D spheroid viability at day 10 (CellTiter-Glo 3D)” value is reported as “no significant lethality”. For the same compound, the “DSB formation and repair” value in experiment [4] was “induced formation of DSBs that were easily repaired”. In addition, the Capan2-mCherry microtumor growth entry in experiment [5] is given as “very little effect on tumor growth”. In experiment [6], the LD50 is 3.0 to 6.0 µM. Also, in [7], the “3D spheroid (microtumor) growth over time” value was “potentiated the lethal effect” and the “3D spheroid viability at day 10 (CellTiter-Glo 3D)” value is recorded as “more hypersensitive”. Moreover, in experiment [8], the “sensitivity to β-lap compared to shSCR control” value is reported as “hypersensitivity”. In addition, the “sensitivity to β-lap compared to siSCR control” value in experiment [9] is reported as “sensitization”. In experiment [10], the “sensitivity after knocking out NQO1” value is on record as “more resistant”. The “DERLC50 (dose-enhancement ratio) of β-lap” value in experiment [11] worked out at 6.6.
